The target of the experiment is T1, Aromatic-L-amino-acid decarboxylase (Mus musculus) (UniProt O88533).
T1 sequence (whole entry): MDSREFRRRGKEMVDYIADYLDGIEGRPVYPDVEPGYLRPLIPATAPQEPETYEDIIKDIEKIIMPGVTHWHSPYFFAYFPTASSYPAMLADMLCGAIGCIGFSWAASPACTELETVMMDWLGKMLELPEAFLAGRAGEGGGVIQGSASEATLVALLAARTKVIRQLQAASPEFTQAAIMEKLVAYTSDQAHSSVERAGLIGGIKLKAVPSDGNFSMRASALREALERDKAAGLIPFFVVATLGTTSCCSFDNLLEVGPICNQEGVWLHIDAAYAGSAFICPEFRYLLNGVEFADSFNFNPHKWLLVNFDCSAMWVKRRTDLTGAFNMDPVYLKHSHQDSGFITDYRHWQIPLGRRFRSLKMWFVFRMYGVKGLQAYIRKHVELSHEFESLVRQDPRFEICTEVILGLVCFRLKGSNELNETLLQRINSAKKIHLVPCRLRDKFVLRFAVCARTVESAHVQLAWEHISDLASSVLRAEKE
The experiment is described as follows: First-order inactivation rate constant (k2) was evaluated as an inhibitor of murine liver aromatic L-amino acid decarboxylase (AADC).

In the case of `N[C@@](CF)(Cc1c[nH]c2ccc(O)cc12)C(=O)O`, the k2 came to 2.26 min⁻¹.
